From patent US11470846B2, “Herbicidal pyridino-/pyrimidino-thiazoles” (SYNGENTA PARTICIPATIONS AG, priority 2014, dated 2022)

How the values were obtained:
Assay type in all cases: in vivo
[1] = test system: Alopecurus myosuroides (ALOMY); experiment: Pre-emergence herbicidal activity; details: pre-emergence application, 1000 g/Ha, evaluated after 13 days, scale 0-5
Description: (§1) B1 Pre-Emergence Herbicidal Activity
(§2) Seeds of a variety of test species were sown in standard soil in pots: Triticum aestivium (TRZAW), Oryza sativa (ORYSA), Avena fatua (AVEFA), Alopecurus myosuroides (ALOMY), Echinochloa crus-galli (ECHCG), Lolium perenne (LOLPE), Zea Mays (ZEAMX), Abutilon theophrasti (ABUTH), Amaranthus retroflexus (AMARE) and Setaria faberi (SETFA). After cultivation for one day (pre-emergence) under controlled conditions in a glasshouse (at 24/16° C., day/night; 14 hours light; 65% humidity), the plants were sprayed with an aqueous spray solution derived from the formulation of the technical active ingredient in acetone/water (50:50) solution containing 0.5% Tween 20 (polyoxyethelyene sorbitan monolaurate, CAS RN 9005-64-5). The test plants were then grown in a glasshouse under controlled conditions (at 24/16° C., day/night; 14 hours light; 65% humidity) and watered twice daily. After 13 days, the test was evaluated (5=total damage to plant; 0=no damage to plant).

Avena fatua (AVEFA) [2] = experiment: Pre-emergence herbicidal activity; details: pre-emergence application, 1000 g/Ha, evaluated after 13 days, scale 0-5
Description: as §1, §2

[3] = test system: Echinochloa crus-galli (ECHCG); experiment: Pre-emergence herbicidal activity; details: pre-emergence application, 1000 g/Ha, evaluated after 13 days, scale 0-5; Table 5
Description: as §1, §2

Lolium perenne (LOLPE) [4] = experiment: Pre-emergence herbicidal activity; details: pre-emergence application, 1000 g/Ha, evaluated after 13 days, scale 0-5; Table 5
Description: as §1, §2

Oryza sativa (ORYSA) [5] = experiment: Pre-emergence herbicidal activity; details: pre-emergence application, 1000 g/Ha, evaluated after 13 days, scale 0-5
Description: as §1, §2

[6] = test system: Triticum aestivium (TRZAW); experiment: Pre-emergence herbicidal activity; details: pre-emergence application, 1000 g/Ha, evaluated after 13 days, scale 0-5
Description: as §1, §2

[7] = test system: Alopecurus myosuroides (ALOMY); experiment: Post-emergence herbicidal activity; details: post-emergence application, 1000 g/Ha, evaluated after 13 days, scale 0-5
Description: (§3) B2 Post-Emergence Herbicidal Activity
(§4) Seeds of a variety of test species were sown in standard soil in pots: Triticum aestivium (TRZAW), Oryza sativa (ORYSA), Avena fatua (AVEFA), Alopecurus myosuroides (ALOMY), Echinochloa crus-galli (ECHCG), Lolium perenne (LOLPE), Zea Mays (ZEAMX), Abutilon theophrasti (ABUTH), Amaranthus retroflexus (AMARE) and Setaria faberi (SETFA). After 8 days cultivation (post-emergence) under controlled conditions in a glasshouse (at 24/16° C., day/night; 14 hours light; 65% humidity), the plants were sprayed with an aqueous spray solution derived from the formulation of the technical active ingredient in acetone/water (50:50) solution containing 0.5% Tween 20 (polyoxyethelyene sorbitan monolaurate, CAS RN 9005-64-5). The test plants were then grown in a glasshouse under controlled conditions (at 24/16° C., day/night; 14 hours light; 65% humidity) and watered twice daily. After 13 days, the test was evaluated (5=total damage to plant; 0=no damage to plant).

Avena fatua (AVEFA) [8] = experiment: Post-emergence herbicidal activity; details: post-emergence application, 1000 g/Ha, evaluated after 13 days, scale 0-5
Description: as §3, §4

[9] = test system: Echinochloa crus-galli (ECHCG); experiment: Post-emergence herbicidal activity; details: post-emergence application, 1000 g/Ha, evaluated after 13 days, scale 0-5; Table 7
Description: as §3, §4

Lolium perenne (LOLPE) [10] = experiment: Post-emergence herbicidal activity; details: post-emergence application, 1000 g/Ha, evaluated after 13 days, scale 0-5; Table 7
Description: as §3, §4

Oryza sativa (ORYSA) [11] = experiment: Post-emergence herbicidal activity; details: post-emergence application, 1000 g/Ha, evaluated after 13 days, scale 0-5
Description: as §3, §4

[12] = test system: Triticum aestivium (TRZAW); experiment: Post-emergence herbicidal activity; details: post-emergence application, 1000 g/Ha, evaluated after 13 days, scale 0-5
Description: as §3, §4

Compound | Control of weed species, ALOMY (damage score) [1] | Control of weed species, AVEFA (damage score) (Avena fatua (AVEFA) [2]) | Control of weed species, ECHCG (damage score) [3] | Control of weed species, LOLPE (damage score) (Lolium perenne (LOLPE) [4]) | Control of weed species, ORYSA (damage score) (Oryza sativa (ORYSA) [5]) | Control of weed species, TRZAW (damage score) [6] | Control of weed species, ALOMY (damage score) [7] | Control of weed species, AVEFA (damage score) (Avena fatua (AVEFA) [8]) | Control of weed species, ECHCG (damage score) [9] | Control of weed species, LOLPE (damage score) (Lolium perenne (LOLPE) [10]) | Control of weed species, ORYSA (damage score) (Oryza sativa (ORYSA) [11]) | Control of weed species, TRZAW (damage score) [12]
Cc1nc(-c2cncc(N)c2)sc1N(C)C(=O)OC(C)(C)C [Compound A11] | 1 | 1 | 2 | 0 | 2 | 2 | 1 | 1 | 2 | 1 | 1 | 2
CSc1cncc(-c2nc(C)c(N(C)C(=O)OC(C)(C)C)s2)c1 [Compound A12] | 0 | 3 | 3 | 1 | 0 | 0 | 0 | 2 | 4 | 3 | 1 | 2
Cc1nc(-c2cncc(N(C)C)c2)sc1N(C)C(=O)OC(C)(C)C [Compound A13] | 0 | 0 | 1 | 0 | 1 | 0 | 1 | 0 | 2 | 0 | 1 | 2
Cc1nc(-c2cncc(OCc3ccccc3)c2)sc1N(C)C(=O)OC(C)(C)C [Compound A14] | 0 | 0 | 0 | 1 | 0 | 1 | 0 | 0 | 1 | 0 | 0 | 0
Cc1nc(-c2cncc(O)c2)sc1N(C)C(=O)OC(C)(C)C [Compound A15] | 0 | 0 | 0 | 0 | 0 | 0 | 0 | 2 | 1 | 1 | 0 | 1
Cc1nc(-c2cncc(OC(F)F)c2)sc1N(C)C(=O)OC(C)(C)C [Compound A16, tert-butyl N-[2-[5-(difluoromethoxy)-3-pyridyl]-4-methyl-thiazol-5-yl]-N-methyl-carbamate] | 0 | 3 | 4 | 4 | 1 | 3 | 3 | 5 | 5 | 4 | 0 | 4
CCN(C(=O)OC(C)(C)C)c1sc(-c2cccnc2)nc1C [Compound A17] | 0 | 0 | 0 | 0 | 0 | 0 | 1 | 4 | 1 | 2 | 2 | 1
COC(=O)N(C)c1sc(-c2cccnc2)nc1C [Compound A18] | 1 | 2 | 5 | 2 | 0 | 1 | 1 | 3 | 5 | 2 | 0 | 1
CCOC(=O)N(C)c1sc(-c2cccnc2)nc1C [Compound A19, ethyl N-methyl-N-[4-methyl-2-(3-pyridyl)thiazol-5-yl]carbamate] | 1 | 1 | 5 | 1 | 0 | 0 | 1 | 3 | 5 | 2 | 0 | 1
Cc1nc(-c2cccnc2)sc1N(C)C(=O)OC(C)C [Compound A20] | 0 | 2 | 5 | 2 | 0 | 0 | 1 | 3 | 5 | 3 | 0 | 1
Cc1nc(-c2cccnc2)sc1N(C)C(=O)NC(C)(C)C [Compound A21, 3-tert-butyl-1-methyl-1-[4-methyl-2-(3-pyridyl)thiazol-5-yl]urea] | 0 | 2 | 5 | 1 | 0 | 0 | 2 | 4 | 5 | 3 | 0 | 1
Cc1nc(-c2cccnc2)sc1N(C)C(=O)SC(C)(C)C [Compound A22, S-tert-butyl N-methyl-N-[4-methyl-2-(3-pyridyl)thiazol-5-yl]carbamothioate] | 0 | 0 | 0 | 0 | 0 | 0 | 0 | 2 | 2 | 2 | 0 | 0
